One experiment relates to brain. As to the kind of experiment: Matured TTM-001 and TTM-002 variants, NGS enrichment in mouse brain. The format is in vivo, mice. The conditions noted are these: relative to AAV9 control.
Experiment [1] deals with brains, heart, liver, muscle, and DRG of the NHPs. As to the kind of experiment: Maturation of TTM-001 and TTM-002 capsids, NGS enrichment in NHP tissues. Type of experiment: in vivo. Particulars: relative to AAV9 control. The method in brief:
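Variants carry mutations within and flanking the loop IV peptide insert: positions 450–466 were triplet-randomized, while positions 449–466 received low-frequency point mutations. The combined pool went into two NHPs, and each peptide was scored by NGS enrichment ratio against AAV9.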

The mark [2] stands for this setting: NGS fold-enrichment, brain of mice.
The mark [3] stands for this setting: NGS fold-enrichment, mouse brain.
[4] abbreviates: NGS fold-enrichment of RNA, NHP brain.
The mark [5] stands for this setting: NGS fold-enrichment, DRG of NHPs.
Setting [6] is: NGS fold-enrichment, NHP liver DNA.
The mark [7] stands for this setting: NGS fold-enrichment, NHP liver RNA.
Setting [8] is: NGS fold-enrichment, NHP muscle.
The mark [9] stands for this setting: NGS fold-enrichment, RNA, brain of NHPs.
Where [10] appears, read: NGS fold-enrichment, heart of NHPs.
[11] abbreviates: NGS fold-enrichment, liver DNA of NHPs.
Where [12] appears, read: NGS fold-enrichment, liver RNA of NHPs.
[13] abbreviates: NGS fold-enrichment, muscle of NHPs.
The mark [14] stands for this setting: NGS fold-enrichment of matured AAV capsid variants, NHP brain, RNA.

As to KTERPSGSPHSKAQNQQT, the “Fold Enrichment relative to AAV9, Brain (Mouse)” value with brain (setting [2]) and in the experiment on brain (setting [3]) was 73.894 fold in each case. In addition, the “Fold Enrichment relative to AAV9, Brain (NHP)” value in experiment [1] (setting [4]) and in experiment [1] (setting [9]) was 75.669 fold each time. The “Fold Enrichment relative to AAV9, DRG (NHP)” value stood at 0.000 fold in experiment [1] (setting [5]) and 0.000 fold in experiment [1] (NGS fold-enrichment, NHP DRG). Moreover, the “Fold Enrichment relative to AAV9, Heart (NHP)” value came to 0.029 fold in experiment [1] (NGS fold-enrichment, NHP heart) and 0.029 fold in experiment [1] (setting [10]). Besides, the “Fold Enrichment relative to AAV9, Liver DNA (NHP)” value in experiment [1] (setting [6]) and in experiment [1] (setting [11]) was 0.156 fold in each case. Besides, the “Fold Enrichment relative to AAV9, Liver RNA (NHP)” value in experiment [1] (setting [7]) and in experiment [1] (setting [12]) was 0.000 fold each time. For the same sequence, the “Fold Enrichment relative to AAV9, Muscle (NHP)” value in experiment [1] (setting [8]) and in experiment [1] (setting [13]) was 0.000 fold throughout.
As to KTEDRSGSPHSKAQNQQT, in the experiment on brain (setting [2]), the “Fold Enrichment relative to AAV9, Brain (Mouse)” value is 66.887 fold. The “Fold Enrichment relative to AAV9, DRG (NHP)” value in experiment [1] (setting [5]) is 0.000 fold. Further, the “Fold Enrichment relative to AAV9, Brain (NHP)” value in experiment [1] (setting [9]) stood at 61.756 fold. In experiment [1] (setting [10]), the “Fold Enrichment relative to AAV9, Heart (NHP)” value amounted to 0.000 fold. Moreover, the “Fold Enrichment relative to AAV9, Liver DNA (NHP)” value in experiment [1] (setting [11]) worked out at 0.408 fold. In addition, in experiment [1] (setting [12]), the “Fold Enrichment relative to AAV9, Liver RNA (NHP)” value stood at 1.004 fold. Besides, in experiment [1] (setting [13]), the “Fold Enrichment relative to AAV9, Muscle (NHP)” value is 0.000 fold.
In the case of KTINGSGSPHSKAQKTLT, the “Fold Enrichment relative to AAV9, Brain (Mouse)” value with brain (mouse brain) is on record as 66.415 fold. Besides, the “Fold Enrichment relative to AAV9, Brain (NHP)” value in experiment [1] (setting [14]) is 56.844 fold. The “Fold Enrichment relative to AAV9, DRG (NHP)” value in experiment [1] (NHP DRG) was found to be 0.000 fold. Also, the “Fold Enrichment relative to AAV9, Heart (NHP)” value in experiment [1] (NHP heart) is 0.017 fold. Also, the “Fold Enrichment relative to AAV9, Liver DNA (NHP)” value in experiment [1] (NHP liver, DNA) is on record as 1.400 fold. Moreover, the “Fold Enrichment relative to AAV9, Liver RNA (NHP)” value in experiment [1] (NHP liver, RNA) stood at 1.800 fold. Moreover, the “Fold Enrichment relative to AAV9, Muscle (NHP)” value in experiment [1] (NHP muscle) is listed as 0.009 fold.
Take KTINGSGSPHSKAQIGMT: the “Fold Enrichment relative to AAV9, Brain (Mouse)” value with brain (mouse brain) came to 134.585 fold. Besides, the “Fold Enrichment relative to AAV9, Brain (NHP)” value in experiment [1] (setting [14]) is recorded as 59.013 fold. Moreover, in experiment [1] (NHP DRG), the “Fold Enrichment relative to AAV9, DRG (NHP)” value is recorded as 0.081 fold. Also, the “Fold Enrichment relative to AAV9, Heart (NHP)” value in experiment [1] (NHP heart) was found to be 106.528 fold. Also, the “Fold Enrichment relative to AAV9, Liver DNA (NHP)” value in experiment [1] (NHP liver, DNA) is 0.248 fold. For the same sequence, the “Fold Enrichment relative to AAV9, Liver RNA (NHP)” value in experiment [1] (NHP liver, RNA) is 1.003 fold. Also, the “Fold Enrichment relative to AAV9, Muscle (NHP)” value in experiment [1] (NHP muscle) is 0.000 fold.
For the sequence KTIEGHDSPHKSGRNQQT, the “Fold Enrichment relative to AAV9, Brain (Mouse)” value in the experiment with brain (setting [3]) came out at 7.818 fold. Moreover, in experiment [1] (setting [4]), the “Fold Enrichment relative to AAV9, Brain (NHP)” value came to 75.838 fold. In addition, the “Fold Enrichment relative to AAV9, DRG (NHP)” value in experiment [1] (NGS fold-enrichment, NHP DRG) is reported as 0.000 fold. For the same sequence, in experiment [1] (NGS fold-enrichment, NHP heart), the “Fold Enrichment relative to AAV9, Heart (NHP)” value came out at 0.065 fold. Moreover, in experiment [1] (setting [6]), the “Fold Enrichment relative to AAV9, Liver DNA (NHP)” value was 0.079 fold. Further, the “Fold Enrichment relative to AAV9, Liver RNA (NHP)” value in experiment [1] (setting [7]) worked out at 0.000 fold. Besides, the “Fold Enrichment relative to AAV9, Muscle (NHP)” value in experiment [1] (setting [8]) came out at 0.017 fold.
Consider KTVNGGGSPHSKAQHQQT, for which the “Fold Enrichment relative to AAV9, Brain (Mouse)” value in the experiment on brain (mouse brain) is recorded as 138.544 fold. For the same sequence, the “Fold Enrichment relative to AAV9, Brain (NHP)” value in experiment [1] (setting [14]) was 58.602 fold. Also, the “Fold Enrichment relative to AAV9, DRG (NHP)” value in experiment [1] (NHP DRG) was 0.729 fold. Further, the “Fold Enrichment relative to AAV9, Heart (NHP)” value in experiment [1] (NHP heart) was determined as 0.000 fold. In addition, the “Fold Enrichment relative to AAV9, Liver DNA (NHP)” value in experiment [1] (NHP liver, DNA) was 0.043 fold. In addition, in experiment [1] (NHP liver, RNA), the “Fold Enrichment relative to AAV9, Liver RNA (NHP)” value is recorded as 0.000 fold. For the same sequence, the “Fold Enrichment relative to AAV9, Muscle (NHP)” value in experiment [1] (NHP muscle) came to 0.000 fold.

Values taken from patent publication US20260250318A1, “COMPOSITIONS AND METHODS FOR CROSSING THE BLOOD BRAIN BARRIER” (VOYAGER THERAPEUTICS, INC., priority 2022, published 2026).
